Columns and labels:
Assay type in all cases: biochemical
[1] = molecular target: T1, PI3Kα (Homo sapiens, UniProt P42336); assay: In vitro determination of the PI3K enzyme inhibitory activity in the cell free assay (ADP-Glo Kinase Assay), PI3Kα; conditions: ATP 50 μM, read-out: PI3K alpha inhibition
T1 construct: purchased Millipore Ltd (Billerica, Mass.)
Summary of the method: (§1)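 Human recombinant PI3K isoforms with PI/PS lipid substrates (50 μM in 2× buffer, Tris pH 7.5, DTT) were run 60 min at room temperature. Final ATP was 50 μM for α, 100 μM for β, 30 μM for γ and 80 μM for δ. ADP formation was read by ADP-Glo luminescence, and IC50 came from a four-parameter logistic fit.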

[2] = molecular target: T2, PI3Kβ (Homo sapiens, UniProt P42338); assay: In vitro determination of the PI3K enzyme inhibitory activity in the cell free assay (ADP-Glo Kinase Assay), PI3Kβ; conditions: ATP 100 μM, read-out: PI3K beta inhibition
T2 construct: purchased Millipore Ltd (Billerica, Mass.)
T2 sequence (P42338 whole entry): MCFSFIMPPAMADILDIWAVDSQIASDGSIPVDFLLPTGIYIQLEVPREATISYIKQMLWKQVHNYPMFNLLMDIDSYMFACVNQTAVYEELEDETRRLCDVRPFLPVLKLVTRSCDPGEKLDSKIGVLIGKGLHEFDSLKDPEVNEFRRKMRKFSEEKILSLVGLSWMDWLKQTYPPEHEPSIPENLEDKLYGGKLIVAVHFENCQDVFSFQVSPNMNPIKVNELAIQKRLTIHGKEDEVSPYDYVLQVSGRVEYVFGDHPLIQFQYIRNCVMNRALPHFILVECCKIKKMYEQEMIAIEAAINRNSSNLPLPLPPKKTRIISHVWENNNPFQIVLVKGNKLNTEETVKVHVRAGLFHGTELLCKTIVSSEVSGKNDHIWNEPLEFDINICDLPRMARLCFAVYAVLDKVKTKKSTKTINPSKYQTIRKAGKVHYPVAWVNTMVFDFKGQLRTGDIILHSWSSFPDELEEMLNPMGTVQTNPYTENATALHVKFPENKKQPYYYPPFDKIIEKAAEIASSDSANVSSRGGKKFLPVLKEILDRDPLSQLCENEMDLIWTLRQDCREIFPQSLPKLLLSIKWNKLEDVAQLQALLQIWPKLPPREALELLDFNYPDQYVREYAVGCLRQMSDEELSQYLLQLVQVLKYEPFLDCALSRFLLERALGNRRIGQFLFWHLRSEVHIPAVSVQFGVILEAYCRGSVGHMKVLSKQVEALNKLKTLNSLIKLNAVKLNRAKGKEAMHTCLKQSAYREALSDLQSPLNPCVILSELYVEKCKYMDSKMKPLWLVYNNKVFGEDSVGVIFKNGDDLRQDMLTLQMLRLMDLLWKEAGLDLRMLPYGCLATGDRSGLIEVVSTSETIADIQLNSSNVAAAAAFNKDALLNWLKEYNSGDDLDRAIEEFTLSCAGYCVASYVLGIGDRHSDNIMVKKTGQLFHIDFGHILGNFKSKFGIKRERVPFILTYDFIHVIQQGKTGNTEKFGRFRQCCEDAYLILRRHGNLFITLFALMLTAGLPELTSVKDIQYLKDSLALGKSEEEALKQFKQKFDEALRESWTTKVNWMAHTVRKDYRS
T2 sequence (P27986 whole entry partner): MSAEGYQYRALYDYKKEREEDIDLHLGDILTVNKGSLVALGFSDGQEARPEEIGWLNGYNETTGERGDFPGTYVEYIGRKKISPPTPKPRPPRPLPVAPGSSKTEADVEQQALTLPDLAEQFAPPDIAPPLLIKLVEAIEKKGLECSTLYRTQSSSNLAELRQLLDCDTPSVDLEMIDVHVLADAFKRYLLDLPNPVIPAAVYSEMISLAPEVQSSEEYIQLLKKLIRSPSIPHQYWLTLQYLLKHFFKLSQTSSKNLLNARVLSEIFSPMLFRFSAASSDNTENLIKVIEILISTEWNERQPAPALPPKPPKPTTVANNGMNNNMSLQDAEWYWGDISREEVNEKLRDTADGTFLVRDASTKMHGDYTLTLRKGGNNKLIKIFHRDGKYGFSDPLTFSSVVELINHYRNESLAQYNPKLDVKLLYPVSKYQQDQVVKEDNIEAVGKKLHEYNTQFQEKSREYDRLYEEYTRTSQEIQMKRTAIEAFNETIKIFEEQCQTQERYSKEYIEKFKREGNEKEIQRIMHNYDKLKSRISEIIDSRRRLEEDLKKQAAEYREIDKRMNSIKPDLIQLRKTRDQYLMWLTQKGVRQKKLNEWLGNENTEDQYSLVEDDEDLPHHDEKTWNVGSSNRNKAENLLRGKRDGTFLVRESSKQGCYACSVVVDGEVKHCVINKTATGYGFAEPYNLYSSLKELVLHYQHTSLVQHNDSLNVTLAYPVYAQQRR
Summary of the method: as §1

[3] = molecular target: T3, PI3Kγ (Homo sapiens, UniProt P48736); assay: In vitro determination of the PI3K enzyme inhibitory activity in the cell free assay (ADP-Glo Kinase Assay), PI3Kγ; conditions: ATP 30 μM, read-out: PI3K gamma inhibition
T3 construct: purchased Millipore Ltd (Billerica, Mass.)
T3 sequence (P48736 whole entry): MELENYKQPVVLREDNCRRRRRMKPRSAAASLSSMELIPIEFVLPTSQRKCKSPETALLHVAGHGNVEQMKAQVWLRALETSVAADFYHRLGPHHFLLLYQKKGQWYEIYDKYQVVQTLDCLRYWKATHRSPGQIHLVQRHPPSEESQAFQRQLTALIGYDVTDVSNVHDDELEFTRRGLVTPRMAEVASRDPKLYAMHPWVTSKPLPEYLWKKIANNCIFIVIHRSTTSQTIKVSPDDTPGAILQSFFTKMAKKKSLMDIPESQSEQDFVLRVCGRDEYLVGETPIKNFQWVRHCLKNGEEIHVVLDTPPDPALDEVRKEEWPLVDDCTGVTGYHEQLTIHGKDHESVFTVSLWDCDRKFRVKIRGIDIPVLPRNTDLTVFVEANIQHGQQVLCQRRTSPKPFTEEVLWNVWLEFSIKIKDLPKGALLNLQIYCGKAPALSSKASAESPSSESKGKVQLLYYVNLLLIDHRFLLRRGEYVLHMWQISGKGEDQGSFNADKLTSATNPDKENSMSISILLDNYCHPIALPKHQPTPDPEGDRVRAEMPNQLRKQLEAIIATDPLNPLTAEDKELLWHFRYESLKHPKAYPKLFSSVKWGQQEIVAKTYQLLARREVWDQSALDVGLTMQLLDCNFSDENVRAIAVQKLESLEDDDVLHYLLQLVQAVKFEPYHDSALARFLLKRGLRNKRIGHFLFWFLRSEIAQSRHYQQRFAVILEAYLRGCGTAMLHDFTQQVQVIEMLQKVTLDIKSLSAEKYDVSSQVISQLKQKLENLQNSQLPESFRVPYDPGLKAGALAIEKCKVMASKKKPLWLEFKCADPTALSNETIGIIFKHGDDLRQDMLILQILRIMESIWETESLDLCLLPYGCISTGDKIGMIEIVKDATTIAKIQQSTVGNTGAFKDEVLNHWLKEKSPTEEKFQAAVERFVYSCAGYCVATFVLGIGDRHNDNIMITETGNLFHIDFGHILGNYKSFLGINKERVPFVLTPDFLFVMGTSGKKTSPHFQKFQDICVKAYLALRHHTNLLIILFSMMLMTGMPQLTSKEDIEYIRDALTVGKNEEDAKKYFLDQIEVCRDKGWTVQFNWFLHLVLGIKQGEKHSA
Summary of the method: as §1

[4] = molecular target: T4, PI3Kδ (Homo sapiens, UniProt O00329); assay: In vitro determination of the PI3K enzyme inhibitory activity in the cell free assay (ADP-Glo Kinase Assay), PI3Kδ; conditions: ATP 80 μM, read-out: PI3K delta inhibition
T4 construct: purchased Millipore Ltd (Billerica, Mass.)
T4 sequence (O00329 whole entry): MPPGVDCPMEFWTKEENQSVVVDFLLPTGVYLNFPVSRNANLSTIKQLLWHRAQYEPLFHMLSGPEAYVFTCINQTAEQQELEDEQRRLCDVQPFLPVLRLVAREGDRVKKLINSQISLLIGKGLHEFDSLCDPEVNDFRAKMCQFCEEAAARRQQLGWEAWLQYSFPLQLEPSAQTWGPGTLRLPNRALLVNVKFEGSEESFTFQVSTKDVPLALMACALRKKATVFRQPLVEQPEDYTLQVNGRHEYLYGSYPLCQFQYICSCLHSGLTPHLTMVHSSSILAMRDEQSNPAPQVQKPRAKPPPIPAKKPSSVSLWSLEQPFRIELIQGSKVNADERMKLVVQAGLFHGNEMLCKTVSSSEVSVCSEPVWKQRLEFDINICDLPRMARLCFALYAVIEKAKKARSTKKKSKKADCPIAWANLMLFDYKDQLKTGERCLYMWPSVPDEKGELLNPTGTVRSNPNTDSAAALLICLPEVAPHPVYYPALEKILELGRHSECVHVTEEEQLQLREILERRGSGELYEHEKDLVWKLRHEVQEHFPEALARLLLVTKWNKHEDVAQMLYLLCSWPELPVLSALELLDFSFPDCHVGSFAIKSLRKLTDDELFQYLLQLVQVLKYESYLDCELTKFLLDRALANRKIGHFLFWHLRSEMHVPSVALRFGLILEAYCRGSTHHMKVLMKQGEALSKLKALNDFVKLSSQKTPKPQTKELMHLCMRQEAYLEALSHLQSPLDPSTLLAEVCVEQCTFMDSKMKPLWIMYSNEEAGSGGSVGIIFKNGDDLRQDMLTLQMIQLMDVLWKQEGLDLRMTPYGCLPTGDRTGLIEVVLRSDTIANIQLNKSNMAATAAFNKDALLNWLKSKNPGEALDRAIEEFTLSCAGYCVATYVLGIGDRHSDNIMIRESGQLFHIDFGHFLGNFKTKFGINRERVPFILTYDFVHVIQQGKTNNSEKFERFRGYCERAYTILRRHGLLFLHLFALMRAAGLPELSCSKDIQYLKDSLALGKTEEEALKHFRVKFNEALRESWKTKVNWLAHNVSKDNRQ
T4 sequence (P27986 whole entry partner): as the sequence (P27986 whole entry partner) above
Summary of the method: as §1

T1 sequence (P42336 whole entry): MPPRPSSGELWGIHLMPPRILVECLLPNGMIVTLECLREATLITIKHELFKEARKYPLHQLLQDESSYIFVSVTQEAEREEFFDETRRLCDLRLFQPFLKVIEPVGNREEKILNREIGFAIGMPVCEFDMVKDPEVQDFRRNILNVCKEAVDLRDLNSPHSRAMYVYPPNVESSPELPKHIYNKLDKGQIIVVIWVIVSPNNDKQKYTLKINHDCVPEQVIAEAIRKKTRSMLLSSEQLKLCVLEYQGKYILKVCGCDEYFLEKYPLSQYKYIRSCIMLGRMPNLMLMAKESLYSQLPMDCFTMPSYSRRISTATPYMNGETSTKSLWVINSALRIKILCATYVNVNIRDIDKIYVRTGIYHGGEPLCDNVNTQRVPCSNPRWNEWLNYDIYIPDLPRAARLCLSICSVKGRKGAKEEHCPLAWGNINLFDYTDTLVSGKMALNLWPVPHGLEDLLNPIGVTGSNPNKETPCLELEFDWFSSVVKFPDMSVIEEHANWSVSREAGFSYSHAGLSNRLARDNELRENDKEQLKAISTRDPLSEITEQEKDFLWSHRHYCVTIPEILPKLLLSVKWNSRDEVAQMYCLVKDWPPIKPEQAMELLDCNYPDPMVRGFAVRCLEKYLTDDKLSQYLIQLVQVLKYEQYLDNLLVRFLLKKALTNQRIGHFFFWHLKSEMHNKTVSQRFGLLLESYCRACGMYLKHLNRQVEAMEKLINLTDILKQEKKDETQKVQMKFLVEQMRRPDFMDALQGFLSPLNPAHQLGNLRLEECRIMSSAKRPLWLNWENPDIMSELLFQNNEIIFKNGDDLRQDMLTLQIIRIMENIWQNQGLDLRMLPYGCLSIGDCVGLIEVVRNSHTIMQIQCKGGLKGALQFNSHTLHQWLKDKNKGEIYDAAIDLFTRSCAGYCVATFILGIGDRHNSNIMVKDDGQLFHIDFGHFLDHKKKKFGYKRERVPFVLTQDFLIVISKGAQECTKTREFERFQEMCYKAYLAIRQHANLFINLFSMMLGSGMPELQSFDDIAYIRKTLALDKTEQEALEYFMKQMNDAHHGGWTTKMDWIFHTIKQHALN
T1 sequence (P27986 whole entry partner): as the sequence (P27986 whole entry partner) above

Row | Compound | IC50 [1] [µM] | IC50 [2] [µM] | IC50 [3] [µM] | IC50 [4] [µM]
1 | CC(c1cc2ccccn2c1-c1ccccc1C#N)n1nc(-c2cc(O)cc(F)c2)c2c(N)ncnc21 (stereo not shown) [Example 123, 2-(2-{1-[4-amino-3-(3-fluoro-5-hydroxyphenyl)-1H-pyrazolo[3,4-d]pyrimidin-1-yl]-ethyl}indolizin-3-yl)benzonitrile] | > 1 | 0.01 to 1 | > 1 | < 0.01
2 | CC(c1c(C(F)(F)F)c2ccccn2c1-c1ccccn1)n1nc(-c2cc(O)cc(F)c2)c2c(N)ncnc21 (stereo not shown) [Example 124, 3-(4-amino-1-{1-[3-(pyridin-2-yl)-1-(trifluoromethyl)indolizin-2-yl]ethyl}-1H-pyrazolo[3,4-d]pyrimidin-3-yl)-5-fluorophenol] | > 1 | 0.01 to 1 | > 1 | < 0.01
3 | CC(c1cc2ccccn2c1-c1ccc(C(=O)N2CCOCC2)cn1)n1nc(-c2cc(O)cc(F)c2)c2c(N)ncnc21 (stereo not shown) [Example 125, 3-[4-amino-1-(1-{3-[5-(morpholine-4-carbonyl)pyridin-2-yl]indolizin-2-yl}ethyl)-1H-pyrazolo[3,4-d]-pyrimidin-3-yl]-5-fluorophenol] | 0.01 to 1 | 0.01 to 1 | 0.01 to 1 | < 0.01
4 | CC(c1c(C#N)c2ccccn2c1-c1ccccn1)n1nc(-c2cc(O)cc(F)c2)c2c(N)ncnc21 (stereo not shown) [Example 126, 2-{1-[4-amino-3-(3-fluoro-5-hydroxyphenyl)-1H-pyrazolo[3,4-d]pyrimidin-1-yl]-ethyl}-3-(pyridin-2-yl)indolizine-1-carbonitrile] | 0.01 to 1 | 0.01 to 1 | 0.01 to 1 | < 0.01
5 | CC(c1c(C#N)c2ccccn2c1-c1cccc(CN(C)C)c1)n1nc(-c2cc(O)cc(F)c2)c2c(N)ncnc21 (stereo not shown) [Example 127, 2-{1-[4-amino-3-(3-fluoro-5-hydroxyphenyl)-1H-pyrazolo[3,4-d]pyrimidin-1-yl]-ethyl}-3-{3-[(dimethylamino)-methyl]phenyl}indolizine-1-carbonitrile] | > 1 | 0.01 to 1 | > 1 | < 0.01
6 | CC(c1cc2cccnn2c1-c1cccc(CN(C)C)c1)n1nc(-c2cc(O)cc(F)c2)c2c(N)ncnc21 (stereo not shown) [Example 128, 3-{4-amino-1-[1-(7-{3-[(dimethylamino)-methyl]phenyl}pyrrolo[1,2-b]pyridazin-6-yl)-ethyl]-1H-pyrazolo[3,4-d]pyrimidin-3-yl}-5-fluorophenol] | > 1 | 0.01 to 1 | > 1 | 0.01 to 1
7 | CC(c1cc2ccccn2c1-c1cscn1)n1nc(-c2cc(O)cc(F)c2)c2c(N)ncnc21 (stereo not shown) [Example 129, 3-(4-amino-1-{1-[3-(1,3-thiazol-4-yl)indolizin-2-yl]-ethyl}-1H-pyrazolo[3,4-d]pyrimidin-3-yl)-5-fluorophenol] | 0.01 to 1 | 0.01 to 1 | 0.01 to 1 | 0.01 to 1
8 | CC(c1cc2ccccn2c1-c1csc(CN2CCOCC2)n1)n1nc(-c2cc(O)cc(F)c2)c2c(N)ncnc21 (stereo not shown) [Example 130, 3-[4-amino-1-(1-{3-[2-(morpholin-4-ylmethyl)-1,3-thiazol-4-yl]indolizin-2-yl}ethyl)-1H-pyrazolo-[3,4-d]pyrimidin-3-yl]-5-fluorophenol] | > 1 | 0.01 to 1 | 0.01 to 1 | < 0.01
9 | CC(c1cc2ccccn2c1C#CCN(C)C)n1nc(-c2cc(O)cc(F)c2)c2c(N)ncnc21 (stereo not shown) [Example 131, 3-[4-amino-1-(1-{3-[3-(dimethylamino)prop-1-yn-1-yl]indolizin-2-yl}ethyl)-1H-pyrazolo[3,4-d]-pyrimidin-3-yl]-5-fluorophenol] | 0.01 to 1 | 0.01 to 1 | 0.01 to 1 | 0.01 to 1
10 | CC(c1cc2ccccn2c1N1CCN(C)CC1=O)n1nc(-c2cc(O)cc(F)c2)c2c(N)ncnc21 (stereo not shown) [Example 132, 1-(2-{1-[4-amino-3-(3-fluoro-5-hydroxyphenyl)-1H-pyrazolo[3,4-d]pyrimidin-1-yl]-ethyl}indolizin-3-yl)-4-methylpiperazin-2-one] | 0.01 to 1 | 0.01 to 1 | 0.01 to 1 | < 0.01
11 | CC(c1cc2ccccn2c1-c1ccn(CCN(C)C)c(=O)c1)n1nc(-c2cc(O)cc(F)c2)c2c(N)ncnc21 (stereo not shown) [Example 133, 4-(2-{1-[4-amino-3-(3-fluoro-5-hydroxyphenyl)-1H-pyrazolo[3,4-d]pyrimidin-1-yl]-ethyl}indolizin-3-yl)-1-[2-(dimethylamino)-ethyl]-1,2-dihydropyridin-2-one] | > 1 | 0.01 to 1 | 0.01 to 1 | < 0.01
12 | CC(c1cc2ccccn2c1-c1ccc(=O)n(CCN2CCCC2)n1)n1nc(-c2cc(O)cc(F)c2)c2c(N)ncnc21 (stereo not shown) [Example 134, 6-(2-{1-[4-amino-3-(3-fluoro-5-hydroxyphenyl)-1H-pyrazolo[3,4-d]pyrimidin-1-yl]-ethyl}indolizin-3-yl)-2-[2-(pyrrolidin-1-yl)-ethyl]-2,3-dihydropyridazin-3-one] | > 1 | 0.01 to 1 | > 1 | < 0.01
13 | CC(c1cc2ccccn2c1-c1ccc(=O)n(CCN2CCN(C)CC2)n1)n1nc(-c2cc(O)cc(F)c2)c2c(N)ncnc21 (stereo not shown) [Example 135, 6-(2-{1-[4-amino-3-(3-fluoro-5-hydroxyphenyl)-1H-pyrazolo[3,4-d]pyrimidin-1-yl]-ethyl}indolizin-3-yl)-2-[2-(4-methylpiperazin-1-yl)ethyl]-2,3-dihydropyridazin-3-one] | > 1 | 0.01 to 1 | > 1 | 0.01 to 1
14 | CC(c1cc2ccccn2c1-c1ccc(=O)n(CCN2CCOCC2)n1)n1nc(-c2cc(O)cc(F)c2)c2c(N)ncnc21 (stereo not shown) [Example 136, 6-(2-{1-[4-amino-3-(3-fluoro-5-hydroxyphenyl)-1H-pyrazolo[3,4-d]pyrimidin-1-yl]-ethyl}indolizin-3-yl)-2-[2-(morpholin-4-yl)ethyl]-2,3-dihydropyridazin-3-one] | 0.01 to 1 | 0.01 to 1 | > 1 | 0.01 to 1
15 | CC(c1cc2ccccn2c1-c1ccc(OCCN2CCN(C)CC2)nn1)n1nc(-c2cc(O)cc(F)c2)c2c(N)ncnc21 (stereo not shown) [Example 137, 3-{4-amino-1-[1-(3-{6-[2-(4-methylpiperazin-1-yl)ethoxy]pyridazin-3-yl}indolizin-2-yl)-ethyl]-1H-pyrazolo[3,4-d]pyrimidin-3-yl}-5-fluorophenol] | > 1 | 0.01 to 1 | > 1 | < 0.01
16 | CC(c1cc2ccccn2c1-c1ccc(OCCN(C)C)nn1)n1nc(-c2cc(O)cc(F)c2)c2c(N)ncnc21 (stereo not shown) [Example 138, 3-{4-amino-1-[1-(3-{6-[2-(dimethylamino)-ethoxy]pyridazin-3-yl}indolizin-2-yl)-ethyl]-1H-pyrazolo[3,4-d]pyrimidin-3-yl}-5-fluorophenol] | 0.01 to 1 | 0.01 to 1 | 0.01 to 1 | < 0.01
17 | CC(c1cc2ccccn2c1-c1ccc(OC2CCN(C)CC2)nn1)n1nc(-c2cc(O)cc(F)c2)c2c(N)ncnc21 (stereo not shown) [Example 139, 3-{4-amino-1-[1-(3-{6-[(1-methylpiperidin-4-yl)oxy]pyridazin-3-yl}indolizin-2-yl)ethyl]-1H-pyrazolo-[3,4-d]pyrimidin-3-yl}-5-fluorophenol] | > 1 | 0.01 to 1 | > 1 | 0.01 to 1
18 | CC(c1cc2ccccn2c1-c1ccc(OCCC2CCN(C)CC2)nn1)n1nc(-c2cc(O)cc(F)c2)c2c(N)ncnc21 (stereo not shown) [Example 140, 3-{4-amino-1-[1-(3-{6-[2-(1-methylpiperidin-4-yl)ethoxy]pyridazin-3-yl}indolizin-2-yl)-ethyl]-1H-pyrazolo[3,4-d]pyrimidin-3-yl}-5-fluorophenol] | > 1 | 0.01 to 1 | > 1 | 0.01 to 1
19 | CC(c1cc2ccccn2c1CN1CCOCC1)n1nc(-c2cc(O)cc(F)c2)c2c(N)ncnc21 (stereo not shown) [Example 141, 3-(4-amino-1-{1-[3-(morpholin-4-ylmethyl)indolizin-2-yl]ethyl}-1H-pyrazolo[3,4-d]-pyrimidin-3-yl)-5-fluorophenol] | 0.01 to 1 | 0.01 to 1 | 0.01 to 1 | < 0.01
20 | CC(c1cc2ccccn2c1CN1CCC2(CCCN(C)C2)CC1)n1nc(-c2cc(O)cc(F)c2)c2c(N)ncnc21 (stereo not shown) [Example 142, 3-(4-amino-1-{1-[3-({2-methyl-2,9-diazaspiro[5.5]-undecan-9-yl}methyl)indolizin-2-yl]ethyl}-1H-pyrazolo[3,4-d]-pyrimidin-3-yl)-5-fluorophenol] | > 1 | > 1 | 0.01 to 1 | 0.01 to 1
21 | CC(c1cc2ccccn2c1CN1CCC2(CCN(C)CC2)CC1)n1nc(-c2cc(O)cc(F)c2)c2c(N)ncnc21 (stereo not shown) [Example 143, 3-(4-amino-1-{1-[3-({9-methyl-3,9-diazaspiro[5.5]undecan-3-yl}methyl)indolizin-2-yl]ethyl}-1H-pyrazolo[3,4-d]pyrimidin-3-yl)-5-fluorophenol] | 0.01 to 1 | 0.01 to 1 | 0.01 to 1 | < 0.01
22 | CC(c1cc2ccccn2c1CN1CC2(CCN(C)CC2)C1)n1nc(-c2cc(O)cc(F)c2)c2c(N)ncnc21 (stereo not shown) [Example 144, 3-(4-amino-1-{1-[3-({7-methyl-2,7-diazaspiro[3.5]nonan-2-yl}methyl)indolizin-2-yl]ethyl}-1H-pyrazolo[3,4-d]pyrimidin-3-yl)-5-fluorophenol] | 0.01 to 1 | 0.01 to 1 | 0.01 to 1 | 0.01 to 1

Source: patent US9527869B2, “Indolizine derivatives as phoshoinositide 3-kinases inhibitors” (CHIESI FARMACEUTICI S.P.A., priority 2014, dated 2016)
